Measurements as given in BindingDB's records for doi:10.1016/j.bmc.2019.03.049 (Zhuhai Campus of Zunyi Medical University, 2019).

molecular target: Hepatocyte growth factor receptor (Homo sapiens) (UniProt P08581); experiment: Inhibition of c-MET (unknown origin) using FAM-labelled peptide as substrate measured after 10 mins by mobility shift assay
Sequence (P08581 whole entry, looked up): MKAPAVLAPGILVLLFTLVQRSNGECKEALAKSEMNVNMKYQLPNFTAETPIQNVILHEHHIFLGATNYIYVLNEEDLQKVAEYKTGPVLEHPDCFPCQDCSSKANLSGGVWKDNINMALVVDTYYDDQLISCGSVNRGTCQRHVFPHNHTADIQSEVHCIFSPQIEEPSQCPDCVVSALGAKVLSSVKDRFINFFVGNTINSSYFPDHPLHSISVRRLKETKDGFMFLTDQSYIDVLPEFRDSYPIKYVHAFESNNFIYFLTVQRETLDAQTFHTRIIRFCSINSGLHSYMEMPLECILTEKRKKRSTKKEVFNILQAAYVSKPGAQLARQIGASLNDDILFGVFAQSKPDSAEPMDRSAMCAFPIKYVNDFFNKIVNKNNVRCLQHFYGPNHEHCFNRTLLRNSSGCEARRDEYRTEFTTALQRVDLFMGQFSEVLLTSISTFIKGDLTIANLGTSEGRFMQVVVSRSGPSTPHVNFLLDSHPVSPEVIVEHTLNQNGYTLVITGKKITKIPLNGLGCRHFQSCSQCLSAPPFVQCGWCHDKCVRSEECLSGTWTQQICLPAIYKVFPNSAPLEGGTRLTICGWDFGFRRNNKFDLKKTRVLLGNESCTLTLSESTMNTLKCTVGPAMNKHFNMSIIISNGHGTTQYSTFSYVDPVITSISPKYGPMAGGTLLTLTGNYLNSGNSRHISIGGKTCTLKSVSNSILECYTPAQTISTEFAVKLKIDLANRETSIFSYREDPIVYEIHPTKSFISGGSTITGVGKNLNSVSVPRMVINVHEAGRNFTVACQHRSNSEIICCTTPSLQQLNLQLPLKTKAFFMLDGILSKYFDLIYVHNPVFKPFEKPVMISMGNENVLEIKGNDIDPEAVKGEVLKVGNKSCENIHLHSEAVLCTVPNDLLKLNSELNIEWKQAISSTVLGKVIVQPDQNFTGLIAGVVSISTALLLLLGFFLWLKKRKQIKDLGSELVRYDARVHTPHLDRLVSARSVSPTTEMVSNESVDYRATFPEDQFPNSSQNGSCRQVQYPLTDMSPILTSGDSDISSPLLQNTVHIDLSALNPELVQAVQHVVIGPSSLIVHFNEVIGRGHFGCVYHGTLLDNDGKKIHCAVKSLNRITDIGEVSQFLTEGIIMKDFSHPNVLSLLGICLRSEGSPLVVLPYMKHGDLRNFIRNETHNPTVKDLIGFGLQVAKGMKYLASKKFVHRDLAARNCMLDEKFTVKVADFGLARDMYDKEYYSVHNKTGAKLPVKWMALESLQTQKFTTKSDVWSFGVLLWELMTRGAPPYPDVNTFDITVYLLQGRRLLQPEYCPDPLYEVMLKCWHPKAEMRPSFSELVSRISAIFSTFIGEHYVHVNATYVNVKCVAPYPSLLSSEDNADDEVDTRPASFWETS

| Compound | IC50 [µM] |
| --- | --- |
| COc1cc2c(Oc3ccc(C4SCC(=O)N4NC(=O)Nc4ccc(F)cc4F)cc3)ccnc2cc1OCCCN1CCOCC1 (stereo not drawn) | 3.35 |
| COc1cc2c(Oc3ccc(C4SCC(=O)N4NC(=O)Nc4ccccc4)cc3)ccnc2cc1OCCCN1CCOCC1 (stereo not drawn) | 4.52 |
| COc1cc2c(Oc3ccc(C4SCC(=O)N4NC(=O)Nc4ccc(F)cc4)cc3)ccnc2cc1OCCCN1CCOCC1 (stereo not drawn) | 4.3 |
